Where a name gives a salt, the structure may show the parent alone.

The subject of one test is recombinant NL4-3 virus (Renilla luciferase in nef, Gag P373S; NLRluc) in MT-2 cells. The test can be described thus: whole plant or invertebrate. In kind it is cell-based, HIV. Particulars: Renilla, NL43. An outline of the steps:
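Cells grown in serum-supplemented RPMI were exposed to graded inhibitor concentrations during a 4-5 day infection. Antiviral effect was then derived from luminescence after adding a combined lysis and dual-luciferase substrate mixture to each well.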
By EC50 is commonly meant the concentration at which the effect is half-maximal. Take `C=C(C)[C@@H]1CC[C@]2(NCCNc3cccnn3)CC[C@]3(C)[C@H](CC[C@@H]4[C@@]5(C)CC=C(c6ccc(C(=O)O)cc6)C(C)(C)[C@@H]5CC[C@]43C)[C@@H]12` [Example 200, 4-((1R,3aS,5aR,5bR,7aR,11aS,11bR,13aR,13bR)-5a,5b,8,8,11a-pentamethyl-1-(prop-1-en-2-yl)-3a-(2-(pyridazin-3-ylamino)ethylamino)-2,3,3a,4,5,5a,5b,6,7,7a,8,11,11a,11b,12,13,13a,13b-octadecahydro-1H-cyclopenta[a]chrysen-9-yl)benzoic acid]: the half-maximal effective concentration (EC50) was less than 0.1 µM.

The test is the same for the next values; noted with them: Renilla, NL43, luciferase activity in cells infected for 4-5 days with NLRluc recombinants, serial dilutions of inhibitor; class symbols (key in Table 1); read-out: EC50.
As for `C=C(C)[C@@H]1CC[C@]2(Nc3nc(C(C)(C)C)cs3)CC[C@]3(C)[C@H](CC[C@@H]4[C@@]5(C)CC=C(c6ccc(C(=O)O)cc6)C(C)(C)[C@@H]5CC[C@]43C)[C@@H]12` [Example 185, 4-((1R,3aS,5aR,5bR,7aR,11aS,11bR,13aR,13bR)-3a-(4-tert-butylthiazol-2-ylamino)-5a,5b,8,8,11a-pentamethyl-1-(prop-1-en-2-yl)-2,3,3a,4,5,5a,5b,6,7,7a,8,11,11a,11b,12,13,13a,13b-octadecahydro-1H-cyclopenta[a]chrysen-9-yl)benzoic acid], the EC50 was greater than 0.1 µM.

On to `C=C(C)[C@@H]1CC[C@]2(Nc3nc(-c4ccccn4)cs3)CC[C@]3(C)[C@H](CC[C@@H]4[C@@]5(C)CC=C(c6ccc(C(=O)O)cc6)C(C)(C)[C@@H]5CC[C@]43C)[C@@H]12` [Example 187, 4-((1R,3aS,5aR,5bR,7aR,11aS,11bR,13aR,13bR)-5a,5b,8,8,11a-pentamethyl-1-(prop-1-en-2-yl)-3a-(4-(pyridin-2-yl)thiazol-2-ylamino)-2,3,3a,4,5,5a,5b,6,7,7a,8,11,11a,11b,12,13,13a,13b-octadecahydro-1H-cyclopenta[a]chrysen-9-yl)benzoic acid, TFA], for which the EC50 was less than 0.1 µM.

On to `C=C(C)[C@@H]1CC[C@]2(NCCNc3cccnc3)CC[C@]3(C)[C@H](CC[C@@H]4[C@@]5(C)CC=C(c6ccc(C(=O)O)cc6)C(C)(C)[C@@H]5CC[C@]43C)[C@@H]12` [Example 189, 4-((1R,3aS,5aR,5bR,7aR,11aS,11bR,13aR,13bR)-5a,5b,8,8,11a-pentamethyl-1-(prop-1-en-2-yl)-3a-(2-(pyridin-3-ylamino)ethylamino)-2,3,3a,4,5,5a,5b,6,7,7a,8,11,11a,11b,12,13,13a,13b-octadecahydro-1H-cyclopenta[a]chrysen-9-yl)benzoic acid], for which the EC50 was less than 0.1 µM.

On to `C=C(C)[C@@H]1CC[C@]2(NCCNc3ccncc3)CC[C@]3(C)[C@H](CC[C@@H]4[C@@]5(C)CC=C(c6ccc(C(=O)O)cc6)C(C)(C)[C@@H]5CC[C@]43C)[C@@H]12` [Example 190, 4-((1R,3aS,5aR,5bR,7aR,11aS,11bR,13aR,13bR)-5a,5b,8,8,11a-pentamethyl-1-(prop-1-en-2-yl)-3a-(2-(pyridin-4-ylamino)ethylamino)-2,3,3a,4,5,5a,5b,6,7,7a,8,11,11a,11b,12,13,13a,13b-octadecahydro-1H-cyclopenta[a]chrysen-9-yl)benzoic acid], for which the EC50 was less than 0.1 µM.

In the case of `C=C(C)[C@@H]1CC[C@]2(NCCNc3nccn3C)CC[C@]3(C)[C@H](CC[C@@H]4[C@@]5(C)CC=C(c6ccc(C(=O)O)cc6)C(C)(C)[C@@H]5CC[C@]43C)[C@@H]12` [Example 191, 4-((1R,3aS,5aR,5bR,7aR,11aS,11bR,13aR,13bR)-5a,5b,8,8,11a-pentamethyl-3a-(2-(1-methyl-1H-imidazol-2-ylamino)ethylamino)-1-(prop-1-en-2-yl)-2,3,3a,4,5,5a,5b,6,7,7a,8,11,11a,11b,12,13,13a,13b-octadecahydro-1H-cyclopenta[a]chrysen-9-yl)benzoic acid], the EC50 is less than 0.1 µM.

As for `C=C(C)[C@@H]1CC[C@]2(NCCNc3ccccc3)CC[C@]3(C)[C@H](CC[C@@H]4[C@@]5(C)CC=C(c6ccc(C(=O)O)cc6)C(C)(C)[C@@H]5CC[C@]43C)[C@@H]12` [Example 192, 4-((1R,3aS,5aR,5bR,7aR,11aS,11bR,13aR,13bR)-5a,5b,8,8,11a-pentamethyl-3a-(2-(phenylamino)ethylamino)-1-(prop-1-en-2-yl)-2,3,3a,4,5,5a,5b,6,7,7a,8,11,11a,11b,12,13,13a,13b-octadecahydro-1H-cyclopenta[a]chrysen-9-yl)benzoic acid], the 50% effective concentration (EC50) was less than 0.1 µM.

With `C=C(C)[C@@H]1CC[C@]2(NCCNc3ccc(C)nn3)CC[C@]3(C)[C@H](CC[C@@H]4[C@@]5(C)CC=C(c6ccc(C(=O)O)cc6)C(C)(C)[C@@H]5CC[C@]43C)[C@@H]12` [Example 194, 4-((1R,3aS,5aR,5bR,7aR,11aS,11bR,13aR,13bR)-5a,5b,8,8,11a-pentamethyl-3a-(2-(6-methylpyridazin-3-ylamino)ethylamino)-1-(prop-1-en-2-yl)-2,3,3a,4,5,5a,5b,6,7,7a,8,11,11a,11b,12,13,13a,13b-octadecahydro-1H-cyclopenta[a]chrysen-9-yl)benzoic acid], the EC50 was less than 0.1 µM.

`C=C(C)[C@@H]1CC[C@]2(NCCNC(C)=O)CC[C@]3(C)[C@H](CC[C@@H]4[C@@]5(C)CC=C(c6ccc(C(=O)O)cc6)C(C)(C)[C@@H]5CC[C@]43C)[C@@H]12` [Example 195, 4-((1R,3aS,5aR,5bR,7aR,11aS,11bR,13aR,13bR)-3a-(2-acetamidoethylamino)-5a,5b,8,8,11a-pentamethyl-1-(prop-1-en-2-yl)-2,3,3a,4,5,5a,5b,6,7,7a,8,11,11a,11b,12,13,13a,13b-octadecahydro-1H-cyclopenta[a]chrysen-9-yl)benzoic acid]: the EC50 was less than 0.1 µM.

Take `C=C(C)[C@@H]1CC[C@]2(NCCNc3ccc(SC)cn3)CC[C@]3(C)[C@H](CC[C@@H]4[C@@]5(C)CC=C(c6ccc(C(=O)O)cc6)C(C)(C)[C@@H]5CC[C@]43C)[C@@H]12` [Example 196, 4-((1R,3aS,5aR,5bR,7aR,11aS,11bR,13aR,13bR)-5a,5b,8,8,11a-pentamethyl-3a-(2-(5-(methylthio)pyridin-2-ylamino)ethylamino)-1-(prop-1-en-2-yl)-2,3,3a,4,5,5a,5b,6,7,7a,8,11,11a,11b,12,13,13a,13b-octadecahydro-1H-cyclopenta[a]chrysen-9-yl)benzoic acid]: the EC50 is less than 0.1 µM.

For `C=C(C)[C@@H]1CC[C@]2(NCCNc3nccc(SC)n3)CC[C@]3(C)[C@H](CC[C@@H]4[C@@]5(C)CC=C(c6ccc(C(=O)O)cc6)C(C)(C)[C@@H]5CC[C@]43C)[C@@H]12` [Example 197, 4-((1R,3aS,5aR,5bR,7aR,11aS,11bR,13aR,13bR)-5a,5b,8,8,11a-pentamethyl-3a-(2-(4-(methylthio)pyrimidin-2-ylamino)ethylamino)-1-(prop-1-en-2-yl)-2,3,3a,4,5,5a,5b,6,7,7a,8,11,11a,11b,12,13,13a,13b-octadecahydro-1H-cyclopenta[a]chrysen-9-yl)benzoic acid], the EC50 is less than 0.1 µM.

As to `C=C(C)[C@@H]1CC[C@]2(NCCNc3cccc(SC)n3)CC[C@]3(C)[C@H](CC[C@@H]4[C@@]5(C)CC=C(c6ccc(C(=O)O)cc6)C(C)(C)[C@@H]5CC[C@]43C)[C@@H]12` [Example 198, 4-((1R,3aS,5aR,5bR,7aR,11aS,11bR,13aR,13bR)-5a,5b,8,8,11a-pentamethyl-3a-(2-(6-(methylthio)pyridin-2-ylamino)ethylamino)-1-(prop-1-en-2-yl)-2,3,3a,4,5,5a,5b,6,7,7a,8,11,11a,11b,12,13,13a,13b-octadecahydro-1H-cyclopenta[a]chrysen-9-yl)benzoic acid], the EC50 is less than 0.1 µM.

Take `C=C(C)[C@@H]1CC[C@]2(NCCNc3ncccn3)CC[C@]3(C)[C@H](CC[C@@H]4[C@@]5(C)CC=C(c6ccc(C(=O)O)cc6)C(C)(C)[C@@H]5CC[C@]43C)[C@@H]12` [Example 199, 4-((1R,3aS,5aR,5bR,7aR,11aS,11bR,13aR,13bR)-5a,5b,8,8,11a-pentamethyl-1-(prop-1-en-2-yl)-3a-(2-(pyrimidin-2-ylamino)ethylamino)-2,3,3a,4,5,5a,5b,6,7,7a,8,11,11a,11b,12,13,13a,13b-octadecahydro-1H-cyclopenta[a]chrysen-9-yl)benzoic acid]: the EC50 is less than 0.1 µM.

The same test, now with this note: Renilla, NL43, luciferase activity in cells infected for 4-5 days with NLRluc recombinants, serial dilutions of inhibitor; numeric values; read-out: EC50.
Consider `C=C(C)[C@@H]1CC[C@]2(NCCNc3ccccn3)CC[C@]3(C)[C@H](CC[C@@H]4[C@@]5(C)CC=C(c6ccc(C(=O)O)cc6)C(C)(C)[C@@H]5CC[C@]43C)[C@@H]12` [Example 188, 4-((1R,3aS,5aR,5bR,7aR,11aS,11bR,13aR,13bR)-5a,5b,8,8,11a-pentamethyl-1-(prop-1-en-2-yl)-3a-(2-(pyridin-2-ylamino)ethylamino)-2,3,3a,4,5,5a,5b,6,7,7a,8,11,11a,11b,12,13,13a,13b-octadecahydro-1H-cyclopenta[a]chrysen-9-yl)benzoic acid], for which the EC50 is 0.001 µM.

For the compound `C=C(C)[C@@H]1CC[C@]2(NCCNc3nccs3)CC[C@]3(C)[C@H](CC[C@@H]4[C@@]5(C)CC=C(c6ccc(C(=O)O)cc6)C(C)(C)[C@@H]5CC[C@]43C)[C@@H]12` [Example 193, 4-((1R,3aS,5aR,5bR,7aR,11aS,11bR,13aR,13bR)-5a,5b,8,8,11a-pentamethyl-1-(prop-1-en-2-yl)-3a-(2-(thiazol-2-ylamino)ethylamino)-2,3,3a,4,5,5a,5b,6,7,7a,8,11,11a,11b,12,13,13a,13b-octadecahydro-1H-cyclopenta[a]chrysen-9-yl)benzoic acid], the EC50 is 0.02 µM.
